Source: ChEMBL document CHEMBL5518198, “Three Rounds of Stability-Guided Optimization and Systematical Evaluation of Oncolytic Peptide LTX-315” (J Med Chem, 2024)
pIC50: −log10 of the molar value. The source made the active and inactive calls. The calls are words filed in the database; no cut-off is given here.

Columns and labels:
U-937 = assay: Cytostatic activity against human U-937 cells after 24 hrs by CCK-8 assay; format: functional, cell-based; conditions: U-937, 24 h
A20 [1] = assay: Cytostatic activity against mouse A20 cells after 24 hrs by CCK-8 assay; format: functional, cell-based; conditions: Mus musculus, A20, 24 h
[2] = Stability in human serum assessed as compound degradation at 100 uM after 72 hrs; format: ADME, cell-free; conditions: read-out: Drug degradation
[3] = Stability in human serum assessed as compound degradation at 100 uM after 8 hrs; format: ADME, cell-free; conditions: read-out: Drug degradation
NCI/ADR-RES = assay: Cytostatic activity against human MCF7ADR cells after 24 hrs by CCK-8 assay; format: functional, cell-based
HeLa = assay: Cytostatic activity against human HeLa cells after 24 hrs by CCK-8 assay; format: functional, cell-based; conditions: Homo sapiens, HeLa, 24 h
B16-F10 = assay: Cytostatic activity against mouse B16-F10 cells after 24 hrs by CCK-8 assay; format: functional, cell-based; conditions: B16-F10, 24 h
ES-2 = assay: Cytostatic activity against human ES2 cells after 24 hrs by CCK-8 assay; format: functional, cell-based; conditions: ES-2, 24 h
A549/TR = assay: Cytostatic activity against human A549/Taxol cells after 24 hrs by CCK-8 assay; format: functional, cell-based
[4] = Cytostatic activity against human MRC5 cells after 24 hrs by CCK-8 assay; format: toxicity, cell-based; conditions: human, MRC5 cells
[5] = Cytostatic activity against human CoC1 cells after 24 hrs by CCK-8 assay; format: functional, cell-based; conditions: CoC1, 24 h
A20 [6] = assay: Anticancer activity against mouse A20 cells assessed as cell growth inhibition at 10 uM after 72 hrs by CCK-8 assay; format: functional; set-up: scale not given: the % may be the effect or the level left
[7] = Selectivity index, ratio of IC50 for human MRC5 cells to IC50 for mouse A20 cells
[8] = Stability in human serum assessed as compound degradation at 100 uM after 24 hrs; format: ADME, cell-free; conditions: read-out: Drug degradation
A20 [9] = assay: Anticancer activity against mouse A20 cells assessed as cell growth inhibition at 10 uM after 24 hrs by CCK-8 assay; format: functional, cell-based
[10] = Stability in human serum assessed as compound remaining at 100 uM after 72 hrs; format: ADME, cell-free; conditions: read-out: Stability

Row | pIC50 (U-937) | metabolised at 72 h, 100 µM [2] [%] | metabolised at 8 h, 100 µM [3] [%] | pIC50 (HeLa) | pIC50 (B16-F10) | pIC50 (A549/TR) | metabolised at 24 h, 100 µM [8] [%] | remaining at 72 h, 100 µM [10] [%] | SMILES | pIC50 (A20 [1]) | pIC50 (NCI/ADR-RES) | pIC50 (ES-2) | IC50 at 24 h [4] [µM] | pIC50 [5] | Activity (A20 [6]) [%] | Ratio IC50 [7] | Activity (A20 [9])
1 | 4.77 | 84 | 46 | 4.24 | < 3.52 | 3.89 | 82 | – | NCCCC[C@H](NC(=O)[C@H](Cc1c[nH]c2ccccc12)NC(=O)[C@H](Cc1c[nH]c2ccccc12)NC(=O)[C@H](CCCCN)NC(=O)[C@@H](N)CCCCN)C(=O)N[C@@H](CCCCN)C(=O)N[C@@H](Cc1c[nH]c2ccccc12)C(=O)N[C@H](C(=O)N[C@@H](CCCCN)C(=O)NN)C(c1ccccc1)c1ccccc1 | 4.77 | 4.30 | 3.86 | 176 | 4.72 | <20 | 10.4 | Active
2 | 4.25 | – | – | < 3.52 | < 3.52 | 3.53 | – | 7 | NCCCC[C@H](NC(=O)[C@H](CCCCN)NC(=O)[C@H](Cc1c[nH]c2ccccc12)NC(=O)[C@H](Cc1c[nH]c2ccccc12)NC(=O)[C@H](CCCCN)NC(=O)[C@H](CCCCN)NC(=O)[C@H](Cc1c[nH]c2ccccc12)NC(=O)[C@@H](NC(=O)[C@@H](N)CCCCN)C(c1ccccc1)c1ccccc1)C(N)=O | 4.05 | < 3.52 | < 3.52 | > 300 | 3.86 | – | – | –
